These results are taken from patent publication US9738902B2, “Modified PYR/PYL receptors activated by ligands” (priority 2013, dated 2017).

For experiment [1], the target named is T1, PYR1 K59R N167G (Arabidopsis thaliana, UniProt O49686, K59R/N167G).
T1 construct: expressed in transfected cells; host or cells: S. cerevisiae Y190 two-hybrid reporter strain
Description: Y2H Pocket Library Screen (HAB1, X-gal). It is filed as cell-based. The method in brief:
(§1)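 Mutant PYR1 variants are screened in yeast two-hybrid against HAB1, with 100 μM compound in –Leu/–Trp dextrose agar; responsiveness is judged by X-gal staining after 2 days at 30° C.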

Experiment [2] deals with T2, PYR1 K59R E141H (Arabidopsis thaliana, UniProt O49686, E141H/K59R).
T2 construct: expressed in transfected cells; host or cells: S. cerevisiae Y190 two-hybrid reporter strain
Description: Y2H Pocket Library Screen (HAB1, X-gal). The experiment is classed as cell-based. The method in brief:
as §1

Experiment [3] deals with T3, PYR1 K59R V164K (Arabidopsis thaliana, UniProt O49686, K59R/V164K).
T3 construct: expressed in transfected cells; host or cells: S. cerevisiae Y190
Description: Y2H Pocket Library Screen (HAB1, X-gal). The experiment is classed as cell-based. Put shortly:
as §1

Experiment [4] addresses T4, PYR1 K59R T162W (Arabidopsis thaliana, UniProt O49686, K59R/T162W).
T4 construct: expressed in transfected cells; host or cells: S. cerevisiae Y190
Description: Y2H Pocket Library Screen (HAB1, X-gal). The experiment is classed as cell-based. The method in brief: as §1

The target of experiment [5] is T5, PYR1 K59R E141Q (Arabidopsis thaliana, UniProt O49686, E141Q/K59R).
T5 construct: expressed in transfected cells; host or cells: S. cerevisiae Y190 two-hybrid reporter strain
Nature of the experiment: Y2H Pocket Library Screen (HAB1, X-gal). It is filed as cell-based. Put shortly:
as §1

Experiment [6] addresses T6, PYR1 K59R M158G (Arabidopsis thaliana, UniProt O49686, K59R/M158G).
T6 construct: expressed in transfected cells; host or cells: S. cerevisiae Y190 two-hybrid reporter strain
Nature of the experiment: Y2H Pocket Library Screen (HAB1, X-gal). It is filed as cell-based. The method in brief: as §1

Experiment [7] has as its target T7, PYR1 K59R M158C (Arabidopsis thaliana, UniProt O49686, K59R/M158C).
T7 construct: expressed in transfected cells; host or cells: S. cerevisiae Y190 two-hybrid reporter strain
Nature of the experiment: Y2H Pocket Library Screen (HAB1, X-gal). The experiment is classed as cell-based. The method in brief: as §1

For experiment [8], the target named is T8, PYR1 K59R N167A (Arabidopsis thaliana, UniProt O49686, K59R/N167A).
T8 construct: expressed in transfected cells; host or cells: S. cerevisiae Y190 two-hybrid reporter strain
Nature of the experiment: Y2H Pocket Library Screen (HAB1, X-gal). It is filed as cell-based. Put shortly: as §1

Experiment [9] deals with T9, PYR1 K59R I110M (Arabidopsis thaliana, UniProt O49686, I110M/K59R).
T9 construct: expressed in transfected cells; host or cells: S. cerevisiae Y190 two-hybrid reporter strain
Description: Y2H Pocket Library Screen (HAB1, X-gal). It is filed as cell-based. Put shortly: as §1

Experiment [10] deals with T10, PYR1 K59R A160Y (Arabidopsis thaliana, UniProt O49686, A160Y/K59R).
T10 construct: expressed in transfected cells; host or cells: S. cerevisiae Y190
Nature of the experiment: Y2H Pocket Library Screen (HAB1, X-gal). The experiment is classed as cell-based. The method in brief: as §1

Experiment [11] deals with MDP1 and MDP2 transgenic lines (35S::PYR1^MANDI). Description: thermal imaging of leaf temperature. It is filed as in vivo, Arabidopsis. Particulars: 1 μM mandipropamid, 24 hours after first application.
The target of experiment [12] is T11, 6×-His-GFP-PYR1^MANDI and GFP-HAB1 (Arabidopsis thaliana, UniProt O49686, F108A/F159L/K59R/S122G/V81I/Y58H).
T11 construct: expressed in transfected cells; host or cells: Nicotiana benthamiana leaves, Agrobacterium tumefaciens GV3101 infiltration
Description: co-precipitation after transient co-expression in leaves. Particulars: 50 μM mandipropamid, 20 hours. It is filed as in vivo, Nicotiana benthamiana. From the text: We therefore investigated if the mandipropamid promoted interaction between PYR1^MANDI and the PP2C HAB1 could be observed using similar experiments. To conduct these experiments PYR1^MANDI was cloned as a 6×-His-GFP fusion protein in the vector pEGAD (Cutler et al., 2000). HAB1 was cloned as a GFP fusion protein in the vector pEGAD. Both constructs were transformed into Agrobacterium tumefaciens (GV3101) and utilized in transient expression experiments. The Agrobacterium strains harboring the receptor, PP2C and the silencing suppressor p19 were mixed together in ratios corresponding to 0.1, 1.0 and 0.5 final OD600 units respectively. The mixture was infiltrated into two separate N. benthamiana leaves and 2 days later the leaves were treated with either 50 μM mandipropamid or mock solutions made in water containing 0.02% Silwet L-77. 20 hours later the leaves were homogenized in liquid nitrogen, re-suspended in an extraction buffer composed of 1×TBS, 0.1% NP-40, 1 mM DTT, 10% glycerol, and 1× plant protease inhibitor cocktail (Sigma, USA) and clarified by centrifugation. […] Both PYR1^MANDI and HAB1 were expressed as GFP fusion proteins and could therefore be detected with an anti-GFP antibody. The blots were probed with an anti-GFP monoclonal primary antibody and detected using an anti-mouse IgG-HP sheep secondary antibody using ECL (Amersham, USA) development.

Experiment [13] has as its target T12, PYR1 K59R F108G (Arabidopsis thaliana, UniProt O49686, F108G/K59R).
T12 construct: expressed in transfected cells; host or cells: S. cerevisiae Y190 yeast two-hybrid reporter strain
Nature of the experiment: Y2H Pocket Library Screen (HAB1, X-gal). The experiment is classed as cell-based. The method in brief: as §1

The target of experiment [14] is T13, PYR1 K59R F108I (Arabidopsis thaliana, UniProt O49686, F108I/K59R).
T13 construct: expressed in transfected cells; host or cells: S. cerevisiae Y190 yeast two-hybrid reporter strain
Description: Y2H Pocket Library Screen (HAB1, X-gal). It is filed as cell-based. The method in brief: as §1

For experiment [15], the target named is T14, PYR1 K59R F108S (Arabidopsis thaliana, UniProt O49686, F108S/K59R).
T14 construct: expressed in transfected cells; host or cells: S. cerevisiae Y190 yeast two-hybrid reporter strain
Nature of the experiment: Y2H Pocket Library Screen (HAB1, X-gal). It is filed as cell-based. The method in brief:
as §1

The target of experiment [16] is T15, PYR1 K59R F108L (Arabidopsis thaliana, UniProt O49686, F108L/K59R).
T15 construct: expressed in transfected cells; host or cells: S. cerevisiae Y190 yeast two-hybrid reporter strain
Nature of the experiment: Y2H Pocket Library Screen (HAB1, X-gal). The experiment is classed as cell-based. Put shortly: as §1

The target of experiment [17] is T16, PYR1 K59R S122G (Arabidopsis thaliana, UniProt O49686, K59R/S122G).
T16 construct: expressed in transfected cells; host or cells: S. cerevisiae Y190 two-hybrid reporter strain
Description: Y2H Pocket Library Screen (HAB1, X-gal). The experiment is classed as cell-based. Put shortly: as §1

The target of experiment [18] is T17, PYR1 K59R F159A (Arabidopsis thaliana, UniProt O49686, F159A/K59R).
T17 construct: expressed in transfected cells; host or cells: S. cerevisiae Y190 two-hybrid reporter strain
Description: Y2H Pocket Library Screen (HAB1, X-gal). It is filed as cell-based. Put shortly:
as §1

Experiment [19] concerns the target T18, PYR1 K59R F159M (Arabidopsis thaliana, UniProt O49686, F159M/K59R).
T18 construct: expressed in transfected cells; host or cells: S. cerevisiae Y190
Description: Y2H Pocket Library Screen (HAB1, X-gal). It is filed as cell-based. Put shortly:
as §1

T9 sequence (O49686 whole entry K59R/I110M): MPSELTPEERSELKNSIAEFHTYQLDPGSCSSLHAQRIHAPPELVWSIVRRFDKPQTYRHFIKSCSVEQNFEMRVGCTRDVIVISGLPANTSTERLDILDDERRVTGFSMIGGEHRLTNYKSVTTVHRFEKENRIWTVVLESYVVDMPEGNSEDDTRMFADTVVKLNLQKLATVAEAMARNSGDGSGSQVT
T9 sequence (Q9CAJ0 23-511 partner): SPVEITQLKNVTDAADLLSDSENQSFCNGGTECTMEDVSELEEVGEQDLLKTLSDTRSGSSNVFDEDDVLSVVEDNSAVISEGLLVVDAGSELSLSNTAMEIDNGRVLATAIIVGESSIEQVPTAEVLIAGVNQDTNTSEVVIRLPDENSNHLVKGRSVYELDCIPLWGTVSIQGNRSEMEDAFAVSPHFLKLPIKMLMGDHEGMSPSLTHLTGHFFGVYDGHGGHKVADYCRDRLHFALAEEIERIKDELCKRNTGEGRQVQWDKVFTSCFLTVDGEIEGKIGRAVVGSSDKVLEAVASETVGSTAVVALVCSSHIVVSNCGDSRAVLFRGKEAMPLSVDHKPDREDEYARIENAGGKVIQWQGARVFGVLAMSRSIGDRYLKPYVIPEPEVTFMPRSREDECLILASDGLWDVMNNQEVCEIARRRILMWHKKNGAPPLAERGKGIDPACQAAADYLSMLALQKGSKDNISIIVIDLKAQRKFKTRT
T1 sequence (O49686 whole entry K59R/N167G): as the sequence (O49686 whole entry K59R/I110M) above, with M110I, N167G counted along it
T1 sequence (Q9CAJ0 23-511 partner): as the sequence (Q9CAJ0 23-511 partner) above
T12 sequence (O49686 whole entry K59R/F108G): as the sequence (O49686 whole entry K59R/I110M) above, with F108G, M110I counted along it
T12 sequence (Q9CAJ0 23-511 partner): as the sequence (Q9CAJ0 23-511 partner) above
T8 sequence (O49686 whole entry K59R/N167A): as the sequence (O49686 whole entry K59R/I110M) above, with M110I, N167A counted along it
T8 sequence (Q9CAJ0 23-511 partner): as the sequence (Q9CAJ0 23-511 partner) above
T4 sequence (O49686 whole entry K59R/T162W): as the sequence (O49686 whole entry K59R/I110M) above, with M110I, T162W counted along it
T4 sequence (Q9CAJ0 23-511, further chain): as the sequence (Q9CAJ0 23-511 partner) above
T13 sequence (O49686 whole entry K59R/F108I): as the sequence (O49686 whole entry K59R/I110M) above, with F108I, M110I counted along it
T13 sequence (Q9CAJ0 23-511 partner): as the sequence (Q9CAJ0 23-511 partner) above
T17 sequence (Q9CAJ0 23-511): as the sequence (Q9CAJ0 23-511 partner) above
T17 sequence (O49686 whole entry K59R/F159A): as the sequence (O49686 whole entry K59R/I110M) above, with M110I, F159A counted along it
T2 sequence (Q9CAJ0 23-511): as the sequence (Q9CAJ0 23-511 partner) above
T2 sequence (O49686 whole entry K59R/E141H): as the sequence (O49686 whole entry K59R/I110M) above, with M110I, E141H counted along it
T7 sequence (O49686 whole entry K59R/M158C): as the sequence (O49686 whole entry K59R/I110M) above, with M110I, M158C counted along it
T7 sequence (Q9CAJ0 23-511, further chain): as the sequence (Q9CAJ0 23-511 partner) above
T14 sequence (O49686 whole entry K59R/F108S): as the sequence (O49686 whole entry K59R/I110M) above, with F108S, M110I counted along it
T14 sequence (Q9CAJ0 23-511 partner): as the sequence (Q9CAJ0 23-511 partner) above
T5 sequence (O49686 whole entry K59R/E141Q): as the sequence (O49686 whole entry K59R/I110M) above, with M110I, E141Q counted along it
T5 sequence (Q9CAJ0 23-511 partner): as the sequence (Q9CAJ0 23-511 partner) above
T18 sequence (O49686 whole entry K59R/F159M): as the sequence (O49686 whole entry K59R/I110M) above, with M110I, F159M counted along it
T18 sequence (Q9CAJ0 23-511, further chain): as the sequence (Q9CAJ0 23-511 partner) above
T3 sequence (O49686 whole entry K59R/V164K): as the sequence (O49686 whole entry K59R/I110M) above, with M110I, V164K counted along it
T3 sequence (Q9CAJ0 23-511, stated change not applied, further chain): as the sequence (Q9CAJ0 23-511 partner) above
T6 sequence (O49686 whole entry K59R/M158G): as the sequence (O49686 whole entry K59R/I110M) above, with M110I, M158G counted along it
T6 sequence (Q9CAJ0 23-511 partner): as the sequence (Q9CAJ0 23-511 partner) above
T15 sequence (O49686 whole entry K59R/F108L): as the sequence (O49686 whole entry K59R/I110M) above, with F108L, M110I counted along it
T15 sequence (Q9CAJ0 23-511 partner): as the sequence (Q9CAJ0 23-511 partner) above
T16 sequence (O49686 whole entry K59R/S122G): as the sequence (O49686 whole entry K59R/I110M) above, with M110I, S122G counted along it
T16 sequence (Q9CAJ0 23-511 partner): as the sequence (Q9CAJ0 23-511 partner) above
T11 sequence (O49686 whole entry Y58H/K59R/V81I/F108A/S122G/F159L): as the sequence (O49686 whole entry K59R/I110M) above, with Y58H, V81I, F108A, M110I, S122G, F159L counted along it
T11 sequence (Q9CAJ0 23-511 partner): as the sequence (Q9CAJ0 23-511 partner) above
T10 sequence (O49686 whole entry K59R/A160Y): as the sequence (O49686 whole entry K59R/I110M) above, with M110I, A160Y counted along it
T10 sequence (Q9CAJ0 23-511 partner): as the sequence (Q9CAJ0 23-511 partner) above

As to `N#Cc1c(Cl)cccc1Cl` [Dichlobenil, dichlobenil], the Threshold in [1], in experiment [2], in experiment [3], in [4], in experiment [5] and in [6] was 100 µM each time. In addition, the Threshold in [7], in [8], in experiment [9] and in [10] was 100 µM in each case.
For the molecule `C#CCOc1ccc(CCNC(=O)C(OCC#C)c2ccc(Cl)cc2)cc1OC` (stereo not shown) [Mandipropamid, mandipropamid], the leaf temperature entry in [11] was “increased leaf temperature”. The “interaction of 6×-His-GFP-PYR1^MANDI and GFP-HAB1 in planta” value in experiment [12] is “mandipropamid-dependent physical interaction”. Moreover, the Threshold in experiment [13], in experiment [14], in [15], in [16], in experiment [17] and in experiment [18] was 100 µM throughout. Besides, in [19], the Threshold is 100 µM.
